# Key:
# [1] = system: w.3 AMATU Amaranthus tuberculatus, tall waterhemp, PPO resistant biotype 2 that does not contain the ΔG210 mutation; type: in vivo; conditions: summary of Example 3 table
# [2] = system: w.2 AMATU Amaranthus tuberculatus, tall waterhemp, PPO resistant biotype 1 that does not contain the ΔG210 mutation; type: in vivo; conditions: summary of Example 3 table
smiles,measurement,setting,value
C#CCN1C(=O)C(F)(F)Oc2cc(F)c(-n3c(=O)n(C)c(=S)n(C)c3=O)cc21 [I.a.35],activity in words on PPO resistant weed w.3,[1],very good activity
same,activity in words on PPO resistant weed w.2,[2],very good activity

# Reference: US10897903B2, “Method for controlling PPO resistant weeds” (BASF SE, priority 2016, dated 2021)
